Results: patent US6399614B1, “1-(N-phenylaminoalkyl)piperazine derivatives substituted at position 2 of the phenyl ring” (Recordati S.A. Chemical and Pharmaceutical Company, priority 1997, dated 2002)

How the values were obtained:
[1] = target: T1, pre-synaptic 5-HT1A receptor (Mus musculus, UniProt Q64264); assay: Antagonism of hypothermia induced by 8-OH-DPAT in mice (pre-synaptic antagonism); type: in vivo; settings: for ED50: mouse, iv, read-out: Pre-synaptic 5-HT1A ID50, heading: Pre-synaptic 5-HT1A ID50, dose blocking 50% of hypothermia induced by 0.5 mg/kg s.c. 8-OH-DPAT in mice, compound i.v.
T1 construct: from tissue; host or cells: whole animal, male CD-1 mice
T1 sequence (Q64264 1-421): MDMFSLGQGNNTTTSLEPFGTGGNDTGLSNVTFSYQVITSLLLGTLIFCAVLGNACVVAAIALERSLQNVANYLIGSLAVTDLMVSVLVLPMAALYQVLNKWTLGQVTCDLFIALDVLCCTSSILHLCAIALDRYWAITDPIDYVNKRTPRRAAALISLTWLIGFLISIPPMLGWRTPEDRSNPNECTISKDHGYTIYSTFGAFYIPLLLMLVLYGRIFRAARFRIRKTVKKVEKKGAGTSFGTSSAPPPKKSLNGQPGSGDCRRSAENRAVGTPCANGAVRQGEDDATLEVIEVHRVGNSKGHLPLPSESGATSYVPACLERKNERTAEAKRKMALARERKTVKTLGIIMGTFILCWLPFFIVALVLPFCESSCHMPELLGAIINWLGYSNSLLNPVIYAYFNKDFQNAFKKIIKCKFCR
Experimental: The antagonistic effect of the 5-HT1A receptor antagonists of the invention on hypothermia induced by 8-OH-DPAT was evaluated by the method of Moser (Moser, Eur.J.Pharmacol., 193:165, 1991) with minor modifications as described below. Male CD-1 mice (28-38 g) obtained from Charles River (Italy) were housed in a climate-controlled room (temperature 22±2 C.; humidity 55±15%) and maintained on a 12 h light/dark cycle with free access to food and water. On the day of experiment, mice were placed singly in clear plastic boxes under the same ambient conditions. Body temperature was measured by the insertion of a temperature probe (Termist TM-S, LSI) into the rectum to a depth of 2 cm. Rectal temperature was measured immediately prior to intravenous injection of the test compound. All animals then received 8-OH-DPAT (0.5 mg/kg s.c.) and their temperature was measured 30 min later. For each animal, temperature changes were calculated with respect to pretreatment values and the mean values were calculated for each treatment group. A linear regression equation was used in order to evaluate ID50 values, defined as the dose of antagonist needed to block 50% of the hypothermic effect induced by 0.5 mg/kg 8-OH-DPAT administered subcutaneously.

[2] = target: T2, 5-HT2A serotonergic receptors (Rattus norvegicus, UniProt P14842); assay: Radioreceptor binding, native 5-HT2A receptors, rat cerebral cortex ([3H]ketanserin); settings: Table 3A not given
T2 construct: from tissue; host or cells: rat cerebral cortex membranes
Experimental: (§1) Binding studies on native α2 adrenergic receptors (Diop L. et al, J. Neurochem. 41, 710-715, 1983), and 5-HT2A serotonergic receptors (Craig A. and Kenneth J., Life Sci. 38, 117-127, 1986) were carried out in membranes of rat cerebral cortex. Male Sprague Dawley rats (200-300 g, SD Harlan/Nossan, Italy) were killed by cervical dislocation and cerebral cortexes were excised and immediately frozen in liquid nitrogen and stored at −70° C. until use. Tissues were homogenized (2×20 sec) in 50 volumes of cold 50 mM Tris-HCl buffer pH 7.4, using a Polytron homogenizer (speed 7). Homogenates were centrifuged at 49000×g for 10 min, resuspended in 50 volumes of the same buffer, incubated at 37° C. for 15 min and centrifuged and resuspended twice more. […] Non-specific binding was determined in the presence of 10 μM phentolamine (a2-adrenergic receptors) or 2 μM ketanserin (5-HT2A serotoninergic receptors). […] The filters are then washed with ice-cold buffer and the radioactivity retained on the filters was counted by liquid scintillation spectrometry.
(§2) The inhibition of specific binding of the radioligands by the tested drugs was analyzed to estimate the IC50 value by using the non-linear curve-fitting program Allfit (De Lean et al., Am. J. Physiol. 235, E97-E102, 1978). […]

α2 adrenergic receptors = assay: Radioreceptor binding, native α2-adrenoceptors, rat cerebral cortex ([3H]rauwolscine); settings: Table 3A not given
Experimental: as §1, §2

T2 sequence (P14842 whole entry): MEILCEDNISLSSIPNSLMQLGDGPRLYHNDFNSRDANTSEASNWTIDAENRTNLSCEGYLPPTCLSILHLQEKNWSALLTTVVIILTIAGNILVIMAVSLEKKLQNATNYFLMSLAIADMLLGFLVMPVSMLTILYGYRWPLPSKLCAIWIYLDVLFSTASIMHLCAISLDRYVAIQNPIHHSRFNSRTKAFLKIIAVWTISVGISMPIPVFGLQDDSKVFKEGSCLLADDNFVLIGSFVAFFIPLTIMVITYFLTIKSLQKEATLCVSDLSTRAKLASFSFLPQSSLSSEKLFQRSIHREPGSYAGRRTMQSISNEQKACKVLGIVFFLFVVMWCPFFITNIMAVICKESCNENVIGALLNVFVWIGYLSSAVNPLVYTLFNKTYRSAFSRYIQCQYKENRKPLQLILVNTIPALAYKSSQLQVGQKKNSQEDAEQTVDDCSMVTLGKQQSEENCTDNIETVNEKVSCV

| ED50 [1] | selectivity for the 5-HT1A receptor versus the 5-HT2A [2] | selectivity for the 5-HT1A receptor versus the a2-adrenoceptors (α2 adrenergic receptors) | fold less active than compound of Example 2, pre-synaptic model ([1]; hypothermia model in mice) | SMILES |
| --- | --- | --- | --- | --- |
| 0.02 mg/kg | much more selective than compound A | much more selective than compound A |  | COc1ccccc1N1CCN(CCN(C(=O)C2CCCCC2)c2ccccc2[N+](=O)[O-])CC1 [Example 2, 1-[N-(2-nitrophenyl)-N-cyclohexylcarbonyl-2-aminoethyl]-4-(2-methoxyphenyl) piperazine] |
| 0.221 mg/kg |  |  | at least 10 fold | COc1ccccc1N1CCN(CCN(C(=O)C2CCCCC2)c2ccccc2)CC1 [Compound A, 1-(N-phenyl-N-cyclohexylcarbonyl-2-aminoethyl)-4-(2-methoxyphenyl)piperazine, reference compound] |
